Source: PubChem BioAssay (NCI)
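In this assay, cells in 96-well plates receive the compound at five concentrations for 48 hours. Endpoints are linearly interpolated between the surrounding concentrations. TGI: total growth inhibition.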

Assays:
Assay in all cases: NCI anticancer screen, dose series, 48 h
[1] = system: MDA-MB-435
[2] = system: HOP-92 NSCLC
[3] = system: SF-268 CNS
[4] = system: T-47D breast
[5] = system: MDA-MB-231 breast
[6] = system: NCI-H23 lung
[7] = system: MDA-N
[8] = system: TK-10 renal
[9] = system: U251 CNS
[10] = system: HOP-62 NSCLC
[11] = system: SF-295 CNS
[12] = system: MCF7 breast
[13] = system: K-562 leukemia
[14] = system: NCI-H460 lung
[15] = system: MALME-3M melanoma
[16] = system: SN12C renal
[17] = system: CAKI-1 renal
[18] = system: IGROV1 ovarian
[19] = system: SK-MEL-2 melanoma
[20] = system: SW-620 colon
[21] = system: OVCAR-5 ovarian
[22] = system: OVCAR-3 ovarian
[23] = system: M14 melanoma
[24] = system: SNB-19 CNS
[25] = system: BT-549 breast
[26] = system: KM12 colon
[27] = system: RXF 393 renal
[28] = system: 786-0 renal
[29] = system: HCT-116 colon
[30] = system: NCI/ADR-RES ovarian
[31] = system: NCI-H226 lung
[32] = system: A549 NSCLC
[33] = system: NCI-H522 lung
[34] = system: SF-539 CNS
[35] = system: HCC-2998 colon
[36] = system: RPMI-8226 leukemia
[37] = system: SK-OV-3 ovarian
[38] = system: SNB-75 CNS
[39] = system: CCRF-CEM leukemia
[40] = system: COLO 205 colon
[41] = system: UACC-257 melanoma
[42] = system: LOX IMVI melanoma
[43] = system: OVCAR-4 ovarian
[44] = system: SR leukemia
[45] = system: A498 renal
[46] = system: HCT-15 colon
[47] = system: SK-MEL-28 melanoma
[48] = system: UACC-62 melanoma
[49] = system: HT29 colon
[50] = system: ACHN renal
[51] = system: EKVX NSCLC
[52] = system: HS 578T breast
[53] = system: UO-31 renal
[54] = system: PC-3 prostate
[55] = system: SK-MEL-5 melanoma
[56] = system: MOLT-4 leukemia
[57] = system: OVCAR-8 ovarian
[58] = system: DU-145 prostate
[59] = system: HL-60(TB) leukemia

COc1ccc(CNc2cc(=O)n(C)c(=O)[nH]2)cc1
TGI [1]: > 100 µM
TGI [2]: > 100 µM
TGI [3]: > 100 µM
TGI [4]: > 100 µM
TGI [5]: > 100 µM
TGI [6]: > 100 µM
TGI [7]: > 100 µM
TGI [8]: > 100 µM
TGI [9]: > 100 µM
TGI [10]: > 100 µM
TGI [11]: > 100 µM
TGI [12]: > 100 µM
TGI [13]: > 100 µM
TGI [14]: > 100 µM
TGI [15]: > 100 µM
TGI [16]: > 100 µM
TGI [17]: > 100 µM
TGI [18]: > 100 µM
TGI [19]: > 100 µM
TGI [20]: > 100 µM
TGI [21]: > 100 µM
TGI [22]: > 100 µM
TGI [23]: > 100 µM
TGI [24]: > 100 µM
TGI [25]: > 100 µM
TGI [26]: > 100 µM
TGI [27]: > 100 µM
TGI [28]: > 100 µM
TGI [29]: > 100 µM
TGI [30]: > 100 µM
TGI [31]: > 100 µM
TGI [32]: > 100 µM
TGI [33]: > 100 µM
TGI [34]: > 100 µM
TGI [35]: > 100 µM
TGI [36]: > 100 µM
TGI [37]: > 100 µM
TGI [38]: > 100 µM
TGI [39]: > 100 µM
TGI [40]: > 100 µM
TGI [41]: > 100 µM
TGI [42]: > 100 µM
TGI [43]: > 100 µM
TGI [44]: > 100 µM
TGI [45]: > 100 µM
TGI [46]: > 100 µM
TGI [47]: > 100 µM
TGI [48]: > 100 µM
TGI [49]: > 100 µM
TGI [50]: > 100 µM
TGI [51]: > 100 µM
TGI [52]: > 100 µM
TGI [53]: > 100 µM
TGI [54]: > 100 µM
TGI [55]: > 100 µM
TGI [56]: > 100 µM
TGI [57]: > 100 µM

COc1cccc(/N=N/C(=NNC(=O)c2ccc(C)cc2)c2ccc(N(C)C)cc2)c1
TGI [1]: > 100 µM
TGI [2]: > 100 µM
TGI [3]: > 100 µM
TGI [4]: > 100 µM
TGI [5]: > 100 µM
TGI [6]: > 100 µM
TGI [58]: > 100 µM
TGI [7]: > 100 µM
TGI [8]: > 100 µM
TGI [9]: > 100 µM
TGI [11]: > 100 µM
TGI [59]: > 100 µM
TGI [12]: > 100 µM
TGI [13]: > 100 µM
TGI [14]: > 100 µM
TGI [16]: > 100 µM
TGI [17]: > 100 µM
TGI [18]: > 100 µM
TGI [19]: > 100 µM
TGI [20]: > 100 µM
TGI [21]: > 100 µM
TGI [22]: > 100 µM
TGI [23]: > 100 µM
TGI [24]: > 100 µM
TGI [25]: > 100 µM
TGI [26]: > 100 µM
TGI [28]: > 100 µM
TGI [29]: > 100 µM
TGI [30]: > 100 µM
TGI [31]: > 100 µM
TGI [32]: > 100 µM
TGI [33]: > 100 µM
TGI [34]: > 100 µM
TGI [35]: > 100 µM
TGI [36]: > 100 µM
TGI [37]: > 100 µM
TGI [39]: > 100 µM
TGI [40]: > 100 µM
TGI [41]: > 100 µM
TGI [42]: > 100 µM
TGI [43]: > 100 µM
TGI [44]: > 100 µM
TGI [46]: > 100 µM
TGI [47]: > 100 µM
TGI [49]: > 100 µM
TGI [50]: > 100 µM
TGI [51]: > 100 µM
TGI [52]: > 100 µM
TGI [53]: > 100 µM
TGI [54]: > 100 µM
TGI [55]: > 100 µM
TGI [56]: > 100 µM
TGI [57]: > 100 µM

COc1cc(Oc2nc3ccc(C(F)(F)F)cc3nc2-c2ccccc2)cc(OC)c1OC
TGI [1]: > 100 µM
TGI [2]: 45.7 µM
TGI [3]: 95.2 µM
TGI [4]: > 100 µM
TGI [5]: > 100 µM
TGI [6]: > 100 µM
TGI [58]: > 100 µM
TGI [7]: > 100 µM
TGI [8]: 69.2 µM
TGI [9]: 28.5 µM
TGI [10]: 44.4 µM
TGI [11]: 28.2 µM
TGI [59]: > 100 µM
TGI [12]: > 100 µM
TGI [13]: > 100 µM
TGI [14]: > 100 µM
TGI [15]: > 100 µM
TGI [16]: > 100 µM
TGI [17]: 17.3 µM
TGI [18]: > 100 µM
TGI [21]: > 100 µM
TGI [22]: 97.1 µM
TGI [25]: 56 µM
TGI [26]: > 100 µM
TGI [27]: 45.7 µM
TGI [28]: 12.7 µM
TGI [29]: 31.4 µM
TGI [30]: > 100 µM
TGI [31]: > 100 µM
TGI [32]: 49.7 µM
TGI [33]: > 100 µM
TGI [34]: 60.8 µM
TGI [35]: > 100 µM
TGI [36]: > 100 µM
TGI [37]: 33.4 µM
TGI [38]: 23.5 µM
TGI [39]: > 100 µM
TGI [40]: > 100 µM
TGI [41]: > 100 µM
TGI [42]: > 100 µM
TGI [43]: 26.3 µM
TGI [44]: > 100 µM
TGI [45]: > 100 µM
TGI [46]: > 100 µM
TGI [47]: > 100 µM
TGI [48]: 31.7 µM
TGI [49]: > 100 µM
TGI [50]: 40.6 µM
TGI [51]: > 100 µM
TGI [52]: > 100 µM
TGI [53]: > 100 µM
TGI [54]: > 100 µM
TGI [55]: 44.9 µM
TGI [57]: > 100 µM
